Laboratory results reported in patent publication US20250082614A1, “METHODS OF USING RAD51 INHIBITORS FOR TREATMENT OF PANCREATIC CANCER” (Cyteir Therapeutics, Inc., priority 2019, published 2025).
Read-outs that look alike come from different tables or passages of the source.

Columns and labels:
[1] = Bi-directional Caco-2 permeability; assay type: in vitro ADME; details: human; for Papp A→B at 90 min / Papp B→A at 90 min: Caco-2, 37° C., up to 90 minutes; for Papp A→B at 90 min: apical to basolateral, read-out: AB Papp (cm/sec × 10^6); for Papp B→A at 90 min: basolateral to apical, read-out: BA Papp (cm/sec × 10^6); for efflux ratio at 90 min: Caco-2 efflux ratio, read-out: BA/AB Ratio
Experimental: Bi-directional Caco-2 permeability was assayed. Caco-2 cells were seeded onto permeable polycarbonate supports and allowed to differentiate for about 3 weeks prior to being used in the assays. The cells were then exposed to the compounds from either the apical or basolateral sides and incubated at 37° C. for up to 90 minutes under light agitation. Compound transport was then measured using LC/MS/MS analysis at 30, 60, and 90 minutes.

[2] = test system: Daudi cell line (AID positive); assay: Cell killing assay in the Daudi cell line (AID positive), Cell-Titer Glo; assay type: cell-based; details: Homo sapiens, 168 h; Daudi cells (AID positive), cell death on Day 7
Experimental: Primary screening was a phenotypic screen that utilized the synthetic lethal interaction between AID and RAD51 to identify compounds that were both potent and on target. AID expressing cells are dependent upon RAD51 for survival; inhibiting RAD51 in AID positive cells results in a cytotoxic effect.
The first step was to set up a cell killing assay in the Daudi cell line (AID positive). A 96 well u-bottom plate was prepared by writing the experiment number, plate number, date and initials in the top right corner of the plate lid. With a sterile 300 ml reservoir, and 25 ml serological pipette, evaporation buffer media was pipetted into reservoir in 25 ml increments. Using the liquid handler, 150 ul of evaporation buffer media was pipetted from reservoir into rows A and H, and Columns 1 and 12 of the 96 well u-bottom plate. Cell cultures were counted to obtain the density of cells per ml, and the culture viability. The cell density information was used to obtain 1,000,000 cells from culture using a 5 mL serological pipette into an epi tube. The cell density information from the culture was used to calculate the number of cells and volume of media needed for the assay to seed 1250 cells in 130 ul of media per available culture well in the 96 well u-bottom plate. Rows B through F were used for cells (50 wells in total), with row G left for an empty media control. The calculation was overestimated by 10 mL to account for the dead volume in the 300 ml reservoir. Once the media volume was calculated, the appropriate volume of media was pipetted in 25 mL increments into the 250 mL bottle using a 25 mL serological pipette. The 250 ml bottle was capped tightly, and placed into a 37° C. water bath for 2 minutes. While the culture media was warming, 10 mL of fresh media was pipetted from the 500 mL culture media bottle into a sterile 25 mL reservoir. Using the Eppendorf multichannel pipette, 130 ul of media was pipetted from the 25 mL reservoir into row G of the 96 well u-bottom plate. […]

[3] = Human liver microsome stability; assay type: in vitro ADME; details: human liver microsomes
Experimental: The stability of the claimed compounds was determined in the presences of human liver microsomes. The compounds were incubated with the microsomes at 37° C. for 45 minutes. Samples were analyzed using LC-MS/MS. Data analysis included half-life, clearance rate, and the percentage of hepatic blood flow […] for each of the compounds in the different species.

[4] = Pharmacokinetic (PK) study, plasma by LC-MS; assay type: in vivo, rat; details: po @ 80 mg/kg
Experimental: PK studies in mice were used to determine the fate of the compounds in a whole organism. Rats were treated with the compounds either orally of via IV at the indicated doses and followed for up to 24 hours. Plasma samples were taken at different time points and analyzed by LC-MS.

[5] = Caco-2, apical to basolateral, read-out: AB Recovery %
[6] = Caco-2, basolateral to apical, read-out: BA Recovery %

| Structure (SMILES) | recovery at 90 min [1, 5] | recovery at 90 min [1, 6] | Papp A→B at 90 min [1] | Papp B→A at 90 min [1] | efflux ratio at 90 min [1] | EC50 [2] | % QH (percentage of hepatic blood flow) [3] | F (%) @ 5 mg/kg ([4]; Rat Female) | F (%) @ 5 mg/kg ([4]; Rat Male) |
| --- | --- | --- | --- | --- | --- | --- | --- | --- | --- |
| CC(C)OC(=O)N[C@@H]1CCC(c2ncc(-c3ccc(NC(=O)NCc4ccccc4)cc3S(=O)(=O)NC(C)(C)C)s2)OC1 (mixture of isomers) [Ex. 59, trans-isopropyl N-[6-[5-[4-(benzylcarbamoylamino)-2-(tert-butylsulfamoyl)phenyl]thiazol-2-yl]tetrahydropyran-3-yl]carbamate] | 61.5% | 91.5% | 3.1 ×10⁻⁶ cm/s | 15 ×10⁻⁶ cm/s | 4.8 | – | – | – | – |
| CC(C)OC(=O)Nc1ccc(-c2cnc(C3CC[C@@H](NC(=O)OC(C)C)CO3)s2)c(S(=O)(=O)NC(C)(C)C)c1 (mixture of isomers) [Ex. 60, trans-isopropyl N-[6-[5-[2-(tert-butylsulfamoyl)-4-(isopropoxycarbonylamino)phenyl]thiazol-2-yl]tetrahydropyran-3-yl]carbamate] | 59.8% | 90.8% | 15.6 ×10⁻⁶ cm/s | 13.3 ×10⁻⁶ cm/s | 0.9 | – | – | – | – |
| CC(C)OC(=O)Nc1ccc(-c2cnc(C3CCC(NC(=O)OC[C@@H]4CCCN4C)CC3)s2)c(S(=O)(=O)NC(C)(C)C)c1 (stereo partly drawn) [Ex. 9, isopropyl (3-(N-(tert-butyl)sulfamoyl)-4-(2-((1S,4r)-4-(((((S)-1-methylpyrrolidin-2-yl)methoxy)carbonyl)amino)cyclohexyl)thiazol-5-yl)phenyl)carbamate] | – | – | – | – | – | 100 to 1000 nM | – | – | – |
| CC(C)NC(=O)OC1CCC(c2ncc(-c3ccc(NC(=O)NCc4ccccc4)cc3S(=O)(=O)NC(C)(C)C)s2)CC1 (stereo not drawn) [Ex. 21] | – | – | 3.6 ×10⁻⁶ cm/s | 10.7 ×10⁻⁶ cm/s | 3 | – | – | – | – |
| CC(C)OC(=O)N[C@H]1CC[C@H](c2ncc(-c3ccc(NC(=O)NCc4ccncc4)cc3S(=O)(=O)NC(C)(C)C)s2)CC1 [Ex. 22, trans-isopropyl N-[4-[5-[2-(tert-butylsulfamoyl)-4-(4-pyridylmethylcarbamoylamino)phenyl]thiazol-2-yl]cyclohexyl]carbamate] | 83.1% | 89% | 1.1 ×10⁻⁶ cm/s | 21 ×10⁻⁶ cm/s | 18.7 | – | – | – | – |
| CC(C)OC(=O)NC1CCC(c2ncc(-c3ccc(NC(=O)NCc4cccc(F)c4)cc3S(=O)(=O)NC(C)(C)C)s2)CC1 (stereo not drawn) [Ex. 27, isopropyl ((1r,4r)-4-(5-(2-(N-(tert-butyl)sulfamoyl)-4-(3-(3-fluorobenzyl)ureido)phenyl)thiazol-2-yl)cyclohexyl)carbamate] | – | – | 0.7 ×10⁻⁶ cm/s | 0.5 ×10⁻⁶ cm/s | 0.7 | – | – | – | – |
| CC(C)OC(=O)NC1CCC(c2ncc(-c3ccc(NC(=O)NCc4ccccc4F)cc3S(=O)(=O)NC(C)(C)C)s2)CC1 (stereo not drawn) [Ex. 28, isopropyl ((1r,4r)-4-(5-(2-(N-(tert-butyl)sulfamoyl)-4-(3-(2-fluorobenzyl)ureido)phenyl)thiazol-2-yl)cyclohexyl)carbamate] | – | – | 1.9 ×10⁻⁶ cm/s | 3.3 ×10⁻⁶ cm/s | 1.7 | – | – | – | – |
| CC(C)OC(=O)NC1CCC(c2ncc(-c3ccc(NC(=O)NCc4ccccn4)cc3S(=O)(=O)NC(C)(C)C)s2)CC1 (stereo not drawn) [Ex. 29, isopropyl ((1r,4r)-4-(5-(2-(N-(tert-butyl)sulfamoyl)-4-(3-(pyridin-2-ylmethyl)ureido)phenyl)thiazol-2-yl)cyclohexyl)carbamate] | – | – | 10.9 ×10⁻⁶ cm/s | 24.1 ×10⁻⁶ cm/s | 2.2 | – | 78.8% | 8.39% | 3.69% |
| CC(C)OC(=O)NC1CCC(c2ncc(-c3ccc(NC(=O)N[C@H](C)c4ccccn4)cc3S(=O)(=O)NC(C)(C)C)s2)CC1 (stereo partly drawn) [Ex. 30, isopropyl ((1R,4r)-4-(5-(2-(N-(tert-butyl)sulfamoyl)-4-(3-((R)-1-(pyridin-2-yl)ethyl)ureido)phenyl)thiazol-2-yl)cyclohexyl)carbamate] | – | – | 11.5 ×10⁻⁶ cm/s | 15.7 ×10⁻⁶ cm/s | 1.4 | – | – | – | – |
| CC(C)OC(=O)NC1CCC(c2ncc(-c3ccc(NC(=O)NCc4ncccc4F)cc3S(=O)(=O)NC(C)(C)C)s2)CC1 (stereo not drawn) [Ex. 31, isopropyl ((1r,4r)-4-(5-(2-(N-(tert-butyl)sulfamoyl)-4-(3-((3-fluoropyridin-2-yl)methyl)ureido)phenyl)thiazol-2-yl)cyclohexyl)carbamate] | – | – | 12.8 ×10⁻⁶ cm/s | 13.6 ×10⁻⁶ cm/s | 1.1 | – | 77.3% | 2.77% | 1.49% |
| CC(C)OC(=O)NC1CCC(c2ncc(-c3ccc(NC(=O)OC[C@H]4CCCN4C)cc3S(=O)(=O)NC(C)(C)C)s2)CC1 (stereo partly drawn) [Ex. 34, isopropyl ((1R,4r)-4-(5-(2-(N-(tert-butyl)sulfamoyl)-4-(((((R)-1-methylpyrrolidin-2-yl)methoxy)carbonyl)amino)phenyl)thiazol-2-yl)cyclohexyl)carbamate] | – | – | 0.4 ×10⁻⁶ cm/s | 45.2 ×10⁻⁶ cm/s | 104 | 100 to 1000 nM | – | – | – |
| CC(C)OC(=O)NC1CCC(c2ncc(-c3ccc(NC(=O)OC[C@@H]4CCCN4C)cc3S(=O)(=O)NC(C)(C)C)s2)CC1 (stereo partly drawn) [Ex. 35, isopropyl ((1S,4r)-4-(5-(2-(N-(tert-butyl)sulfamoyl)-4-(((((S)-1-methylpyrrolidin-2-yl)methoxy)carbonyl)amino)phenyl)thiazol-2-yl)cyclohexyl)carbamate] | – | – | 0.4 ×10⁻⁶ cm/s | 41 ×10⁻⁶ cm/s | 99.1 | 100 to 1000 nM | – | – | – |
| CC(C)OC(=O)N[C@@H]1CCC(c2ncc(-c3ccc(NC(=O)NCc4ccccc4)cc3S(=O)(=O)NC(C)(C)C)s2)NC1 (stereo partly drawn) [Ex. 64] | – | – | 2.2 ×10⁻⁶ cm/s | 27.4 ×10⁻⁶ cm/s | 12.5 | – | – | – | – |
| CC(C)OC(=O)N[C@H]1CC[C@H](c2ncc(-c3ccc(NC(=O)NCc4ccccc4)cc3S(=O)(=O)NC(C)(C)C)s2)CC1 [Ex. 66A, trans-isopropyl N-[4-[5-[4-(benzylcarbamoylamino)-2-(tert-butylsulfamoyl)phenyl]thiazol-2-yl]cyclohexyl]carbamate] | – | – | – | – | – | – | 49.6% | 3.31% | 2.55% |
